Measurements taken from BigSolDB 2.1.

With CN1COCNC1=N[N+](=O)[O-] as the molecule, how does the solubility (mole fraction) (in DMF, 293.15 K) read?
The solubility (mole fraction) was 0.0947.

And the solubility (mole fraction) (in DMF, 298.15 K)?
The solubility (mole fraction) was 0.113.

And the solubility (mole fraction) (in DMF, 303.15 K)?
The solubility (mole fraction) was 0.12.

And the solubility (mole fraction) (in DMF, 308.15 K)?
The solubility (mole fraction) was 0.138.

What about the solubility (mole fraction) (in DMF, 313.15 K) of the same molecule?
The solubility (mole fraction) was 0.141.

What about the solubility (mole fraction) (in DMF, 318.15 K) of the same molecule?
Its solubility (mole fraction) is 0.165.

What about the solubility (mole fraction) (in DMF, 323.15 K) of the same molecule?
Its solubility (mole fraction) is 0.166.

What about the solubility (mole fraction) (in DMSO, 293.15 K) of the same molecule?
Its solubility (mole fraction) is 0.0794.

And the solubility (mole fraction) (in DMSO, 298.15 K)?
The solubility (mole fraction) was 0.0978.

And the solubility (mole fraction) (in DMSO, 303.15 K)?
The solubility (mole fraction) was 0.104.

And the solubility (mole fraction) (in DMSO, 308.15 K)?
Its solubility (mole fraction) is 0.115.

And the solubility (mole fraction) (in DMSO, 313.15 K)?
The solubility (mole fraction) was 0.12.

And the solubility (mole fraction) (in DMSO, 318.15 K)?
The solubility (mole fraction) was 0.123.

And the solubility (mole fraction) (in DMSO, 323.15 K)?
Its solubility (mole fraction) is 0.14.

What about the solubility (mole fraction) (in acetonitrile, 293.15 K) of the same molecule?
Its solubility (mole fraction) is 0.0241.

And the solubility (mole fraction) (in acetonitrile, 298.15 K)?
The solubility (mole fraction) was 0.0318.

What about the solubility (mole fraction) (in acetonitrile, 303.15 K) of the same molecule?
The solubility (mole fraction) was 0.0336.

What about the solubility (mole fraction) (in acetonitrile, 308.15 K) of the same molecule?
The solubility (mole fraction) was 0.0411.

And the solubility (mole fraction) (in acetonitrile, 313.15 K)?
The solubility (mole fraction) was 0.0436.

What about the solubility (mole fraction) (in acetonitrile, 318.15 K) of the same molecule?
The solubility (mole fraction) was 0.0547.

And the solubility (mole fraction) (in acetonitrile, 323.15 K)?
The solubility (mole fraction) was 0.0563.

And the solubility (mole fraction) (in dichloromethane, 293.15 K)?
The solubility (mole fraction) was 0.0126.

And the solubility (mole fraction) (in dichloromethane, 298.15 K)?
The solubility (mole fraction) was 0.0154.

What about the solubility (mole fraction) (in dichloromethane, 303.15 K) of the same molecule?
Its solubility (mole fraction) is 0.0162.

And the solubility (mole fraction) (in dichloromethane, 308.15 K)?
The solubility (mole fraction) was 0.0233.

What about the solubility (mole fraction) (in dichloromethane, 313.15 K) of the same molecule?
Its solubility (mole fraction) is 0.0234.

And the solubility (mole fraction) (in dichloromethane, 318.15 K)?
Its solubility (mole fraction) is 0.0265.

And the solubility (mole fraction) (in dichloromethane, 323.15 K)?
Its solubility (mole fraction) is 0.0277.

What about the solubility (mole fraction) (in ethanol, 293.15 K) of the same molecule?
The solubility (mole fraction) was 0.00163.

What about the solubility (mole fraction) (in ethanol, 298.15 K) of the same molecule?
The solubility (mole fraction) was 0.00212.

What about the solubility (mole fraction) (in ethanol, 303.15 K) of the same molecule?
Its solubility (mole fraction) is 0.00241.

What about the solubility (mole fraction) (in ethanol, 308.15 K) of the same molecule?
The solubility (mole fraction) was 0.00351.

And the solubility (mole fraction) (in ethanol, 313.15 K)?
The solubility (mole fraction) was 0.00379.

What about the solubility (mole fraction) (in ethanol, 318.15 K) of the same molecule?
Its solubility (mole fraction) is 0.00445.

What about the solubility (mole fraction) (in ethanol, 323.15 K) of the same molecule?
Its solubility (mole fraction) is 0.00507.

What about the solubility (mole fraction) (in ethyl acetate, 293.15 K) of the same molecule?
Its solubility (mole fraction) is 0.00579.

And the solubility (mole fraction) (in ethyl acetate, 298.15 K)?
The solubility (mole fraction) was 0.00614.

What about the solubility (mole fraction) (in ethyl acetate, 303.15 K) of the same molecule?
Its solubility (mole fraction) is 0.00633.

And the solubility (mole fraction) (in ethyl acetate, 308.15 K)?
The solubility (mole fraction) was 0.0074.

What about the solubility (mole fraction) (in ethyl acetate, 313.15 K) of the same molecule?
The solubility (mole fraction) was 0.00773.

What about the solubility (mole fraction) (in ethyl acetate, 318.15 K) of the same molecule?
The solubility (mole fraction) was 0.00866.

What about the solubility (mole fraction) (in ethyl acetate, 323.15 K) of the same molecule?
The solubility (mole fraction) was 0.0106.

And the solubility (mole fraction) (in ethylene glycol, 293.15 K)?
The solubility (mole fraction) was 0.00157.

And the solubility (mole fraction) (in ethylene glycol, 298.15 K)?
The solubility (mole fraction) was 0.00248.

And the solubility (mole fraction) (in ethylene glycol, 303.15 K)?
Its solubility (mole fraction) is 0.00289.

What about the solubility (mole fraction) (in ethylene glycol, 308.15 K) of the same molecule?
The solubility (mole fraction) was 0.00439.

What about the solubility (mole fraction) (in ethylene glycol, 313.15 K) of the same molecule?
Its solubility (mole fraction) is 0.00447.

And the solubility (mole fraction) (in ethylene glycol, 318.15 K)?
Its solubility (mole fraction) is 0.00527.

And the solubility (mole fraction) (in ethylene glycol, 323.15 K)?
The solubility (mole fraction) was 0.00893.

And the solubility (mole fraction) (in isopropanol, 293.15 K)?
The solubility (mole fraction) was 0.00101.

What about the solubility (mole fraction) (in isopropanol, 298.15 K) of the same molecule?
Its solubility (mole fraction) is 0.0013.

What about the solubility (mole fraction) (in isopropanol, 303.15 K) of the same molecule?
Its solubility (mole fraction) is 0.0013.

And the solubility (mole fraction) (in isopropanol, 308.15 K)?
The solubility (mole fraction) was 0.00175.

And the solubility (mole fraction) (in isopropanol, 313.15 K)?
The solubility (mole fraction) was 0.00242.

What about the solubility (mole fraction) (in isopropanol, 318.15 K) of the same molecule?
Its solubility (mole fraction) is 0.00285.

What about the solubility (mole fraction) (in isopropanol, 323.15 K) of the same molecule?
The solubility (mole fraction) was 0.00303.

And the solubility (mole fraction) (in methanol, 293.15 K)?
The solubility (mole fraction) was 0.00289.

And the solubility (mole fraction) (in methanol, 298.15 K)?
The solubility (mole fraction) was 0.00422.

What about the solubility (mole fraction) (in methanol, 303.15 K) of the same molecule?
Its solubility (mole fraction) is 0.00447.

What about the solubility (mole fraction) (in methanol, 308.15 K) of the same molecule?
Its solubility (mole fraction) is 0.00532.

What about the solubility (mole fraction) (in methanol, 313.15 K) of the same molecule?
Its solubility (mole fraction) is 0.00682.

What about the solubility (mole fraction) (in methanol, 318.15 K) of the same molecule?
Its solubility (mole fraction) is 0.00759.

What about the solubility (mole fraction) (in methanol, 323.15 K) of the same molecule?
Its solubility (mole fraction) is 0.00978.

What about the solubility (mole fraction) (in methyl acetate, 293.15 K) of the same molecule?
The solubility (mole fraction) was 0.00741.

And the solubility (mole fraction) (in methyl acetate, 298.15 K)?
The solubility (mole fraction) was 0.00839.

And the solubility (mole fraction) (in methyl acetate, 303.15 K)?
The solubility (mole fraction) was 0.00936.

And the solubility (mole fraction) (in methyl acetate, 308.15 K)?
The solubility (mole fraction) was 0.0115.

And the solubility (mole fraction) (in methyl acetate, 313.15 K)?
Its solubility (mole fraction) is 0.0124.

What about the solubility (mole fraction) (in methyl acetate, 318.15 K) of the same molecule?
Its solubility (mole fraction) is 0.0133.

And the solubility (mole fraction) (in methyl acetate, 323.15 K)?
Its solubility (mole fraction) is 0.0157.

And the solubility (mole fraction) (in n-butanol, 293.15 K)?
Its solubility (mole fraction) is 0.00199.

What about the solubility (mole fraction) (in n-butanol, 298.15 K) of the same molecule?
Its solubility (mole fraction) is 0.00218.

And the solubility (mole fraction) (in n-butanol, 303.15 K)?
Its solubility (mole fraction) is 0.00234.

What about the solubility (mole fraction) (in n-butanol, 308.15 K) of the same molecule?
Its solubility (mole fraction) is 0.00279.

What about the solubility (mole fraction) (in n-butanol, 313.15 K) of the same molecule?
The solubility (mole fraction) was 0.00308.

And the solubility (mole fraction) (in n-butanol, 318.15 K)?
Its solubility (mole fraction) is 0.00321.

What about the solubility (mole fraction) (in n-butanol, 323.15 K) of the same molecule?
The solubility (mole fraction) was 0.00362.

What about the solubility (mole fraction) (in n-propanol, 293.15 K) of the same molecule?
Its solubility (mole fraction) is 0.00109.

What about the solubility (mole fraction) (in n-propanol, 298.15 K) of the same molecule?
The solubility (mole fraction) was 0.00146.

And the solubility (mole fraction) (in n-propanol, 303.15 K)?
The solubility (mole fraction) was 0.00195.

And the solubility (mole fraction) (in n-propanol, 308.15 K)?
Its solubility (mole fraction) is 0.00217.

And the solubility (mole fraction) (in n-propanol, 313.15 K)?
Its solubility (mole fraction) is 0.00247.

And the solubility (mole fraction) (in n-propanol, 318.15 K)?
Its solubility (mole fraction) is 0.00301.

What about the solubility (mole fraction) (in n-propanol, 323.15 K) of the same molecule?
The solubility (mole fraction) was 0.00441.
